IC50 data for three compounds are collected here from US6559142B2, “Sulfonamide matrix metalloproteinase inhibitors” (Warner-Lambert Company, priority 2001, dated 2003).

pIC50: −log10 of the molar value.

Holding throughout (assay type): biochemical
For assay [1], the target named is T1, MMP-7FL (full-length matrilysin) (Homo sapiens, UniProt P09237).
T1 sequence (P09237 95-267): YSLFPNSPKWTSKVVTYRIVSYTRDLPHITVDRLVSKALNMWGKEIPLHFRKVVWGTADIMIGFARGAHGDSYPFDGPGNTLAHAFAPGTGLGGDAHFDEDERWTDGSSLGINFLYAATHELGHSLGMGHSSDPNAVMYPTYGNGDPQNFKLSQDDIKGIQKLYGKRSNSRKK
In words: Thiopeptolide hydrolysis inhibition assay, MMP-7FL. The following applies: thiopeptolide substrate, HEPES pH 7.0, 22° C. An excerpt:
(§1) The assays measure the amount by which a test compound reduces the hydrolysis of a thiopeptolide substrate catalyzed by a matrix metalloproteinase enzyme. Such assays are described in detail by Ye et al., Biochemistry, 1992;31(45):11231-11235, hereby incorporated herein by reference.
(§2) Thiopeptolide substrates show virtually no decomposition or hydrolysis at or below neutral pH in the absence of a matrix metalloproteinase enzyme. A typical thiopeptolide substrate commonly utilized for assays is Ac-Pro-Leu-Gly-thioester-Leu-Leu-Gly-OEt. A 100 μL assay mixture will contain 50 mM of N-2-hydroxyethylpiperazine-N′-2-ethanesulfonic acid buffer (“HEPES”) at pH 7.0, 10 mM CaCl2, 100 μM thiopeptolide substrate, and 1 mM 5,5′-dithio-bis-(2-nitrobenzoic acid) (DTNB). The thiopeptolide substrate concentration may be varied from, for example, 10 to 800 μM, in order to obtain Km and Kcat values. The change in absorbance at 405 nm is monitored on a Thermo Max microplate reader (Molecular Devices, Menlo Park, Calif.) at room temperature (22° C.). The calculation of the amount of hydrolysis of the thiopeptolide substrate is based on E412=13600 M^−1 cm^−1 for the DTNB-derived product 3-carboxy-4-nitrothiophenoxide. Assays are carried out with and without matrix metalloproteinase inhibitor compounds, and the amount of hydrolysis is compared for a determination of inhibitory activity of the test compounds.
(§3) Several representative compounds have been evaluated for their ability to inhibit various matrix metalloproteinase enzymes. In Table 1, MMP-1FL refers to full-length interstitial collagenase; MMP-2FL refers to full-length Gelatinase A; MMP-3CD refers to the catalytic domain of stromelysin-1; MMP-7FL refers to full-length matrilysin; MMP-9FL refers to full-length Gelatinase B; MMP-13CD refers to the catalytic domain of collagenase 3; and MMP-14CD refers to the catalytic domain of MMP-14. Test compounds were evaluated at various concentrations, in order to determine their respective IC50 values, the micromolar concentration of compound required to cause a 50% inhibition of the catalytic activity of the respective enzyme.

Assay [2] addresses MMP-14CD (catalytic domain of MMP-14) (Homo sapiens, UniProt P50281). In words: Thiopeptolide hydrolysis inhibition assay, MMP-14CD. The settings on record: thiopeptolide substrate, HEPES pH 7.0, 22° C.
Source text: as §1, §2, §3

Assay [3] addresses MMP-13CD (catalytic domain of collagenase 3) (Homo sapiens, UniProt P45452). In words: Thiopeptolide hydrolysis inhibition assay, MMP-13CD. The settings on record: thiopeptolide substrate, HEPES pH 7.0, 22° C.
Source text: as §1, §2, §3

Assay [4] concerns the target T2, MMP-1FL (full-length interstitial collagenase) (Homo sapiens, UniProt P03956).
T2 sequence (P03956 100-469): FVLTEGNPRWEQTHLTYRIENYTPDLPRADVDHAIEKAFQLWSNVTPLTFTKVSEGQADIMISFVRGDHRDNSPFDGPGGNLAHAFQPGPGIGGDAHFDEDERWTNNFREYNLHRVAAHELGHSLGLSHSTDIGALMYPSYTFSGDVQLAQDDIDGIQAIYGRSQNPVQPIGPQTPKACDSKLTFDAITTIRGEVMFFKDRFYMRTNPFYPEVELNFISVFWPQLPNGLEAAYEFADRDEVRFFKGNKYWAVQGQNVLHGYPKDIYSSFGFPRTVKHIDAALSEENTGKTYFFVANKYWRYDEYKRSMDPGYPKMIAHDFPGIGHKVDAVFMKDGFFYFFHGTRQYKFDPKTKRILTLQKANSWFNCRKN
In words: Thiopeptolide hydrolysis inhibition assay, MMP-1FL. The following applies: thiopeptolide substrate, HEPES pH 7.0, 22° C.
Source text: as §1, §2, §3

Assay [5] concerns the target T3, MMP-2FL (full-length Gelatinase A) (Homo sapiens, UniProt P08253).
T3 sequence (P08253 110-660): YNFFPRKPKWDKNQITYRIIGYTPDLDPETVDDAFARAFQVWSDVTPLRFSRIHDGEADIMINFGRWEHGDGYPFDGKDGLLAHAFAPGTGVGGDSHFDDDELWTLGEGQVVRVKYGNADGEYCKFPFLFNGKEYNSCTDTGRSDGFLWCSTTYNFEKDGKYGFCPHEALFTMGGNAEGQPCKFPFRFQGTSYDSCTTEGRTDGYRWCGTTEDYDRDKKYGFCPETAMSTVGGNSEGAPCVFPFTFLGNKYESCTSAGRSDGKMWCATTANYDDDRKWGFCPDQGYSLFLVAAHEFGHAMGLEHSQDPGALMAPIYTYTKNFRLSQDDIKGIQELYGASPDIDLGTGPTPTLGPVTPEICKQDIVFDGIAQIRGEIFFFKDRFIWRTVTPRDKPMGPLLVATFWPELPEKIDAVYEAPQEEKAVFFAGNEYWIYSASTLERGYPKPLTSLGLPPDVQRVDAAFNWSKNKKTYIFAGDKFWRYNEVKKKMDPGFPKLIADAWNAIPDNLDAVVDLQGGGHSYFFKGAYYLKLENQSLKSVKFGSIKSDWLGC
In words: Thiopeptolide hydrolysis inhibition assay, MMP-2FL. The following applies: thiopeptolide substrate, HEPES pH 7.0, 22° C.
Source text: as §1, §2, §3

Assay [6] concerns the target MMP-3CD (catalytic domain of stromelysin-1) (Homo sapiens, UniProt P08254). In words: Thiopeptolide hydrolysis inhibition assay, MMP-3CD. The settings on record: thiopeptolide substrate, MES buffer pH 6.0.
Source text: as §1, §2
It should be appreciated that the assay buffer used with MMP-3CD is 50 mM of N-morpholinoethanesulfonate (“MES”) at pH 6.0 rather than the HEPES buffer at pH 7.0 described above.
as §3

Assay [7] deals with MMP-9FL (full-length Gelatinase B) (Homo sapiens, UniProt P14780). In words: Thiopeptolide hydrolysis inhibition assay, MMP-9FL. The following applies: thiopeptolide substrate, HEPES pH 7.0, 22° C.
Chain of MMP-9FL (full-length Gelatinase B) (P14780 94-707, species assumed): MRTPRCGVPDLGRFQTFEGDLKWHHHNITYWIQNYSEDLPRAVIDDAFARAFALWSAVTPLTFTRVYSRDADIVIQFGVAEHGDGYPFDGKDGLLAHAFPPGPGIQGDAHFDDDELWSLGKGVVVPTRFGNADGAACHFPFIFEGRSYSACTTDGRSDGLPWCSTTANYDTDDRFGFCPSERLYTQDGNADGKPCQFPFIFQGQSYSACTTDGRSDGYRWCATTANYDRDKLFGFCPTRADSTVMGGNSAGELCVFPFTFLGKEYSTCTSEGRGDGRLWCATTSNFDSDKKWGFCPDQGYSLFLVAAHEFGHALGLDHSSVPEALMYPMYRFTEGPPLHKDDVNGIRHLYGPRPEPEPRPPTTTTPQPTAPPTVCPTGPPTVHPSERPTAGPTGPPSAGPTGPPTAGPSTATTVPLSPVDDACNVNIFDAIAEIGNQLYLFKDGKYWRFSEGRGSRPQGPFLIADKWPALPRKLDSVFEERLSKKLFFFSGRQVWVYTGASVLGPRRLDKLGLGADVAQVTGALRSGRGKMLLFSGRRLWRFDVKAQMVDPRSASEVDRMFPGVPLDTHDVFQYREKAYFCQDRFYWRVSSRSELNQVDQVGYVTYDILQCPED
Source text: as §1, §2, §3

Chain of MMP-3CD (catalytic domain of stromelysin-1) (P08254 100-272 limits assumed): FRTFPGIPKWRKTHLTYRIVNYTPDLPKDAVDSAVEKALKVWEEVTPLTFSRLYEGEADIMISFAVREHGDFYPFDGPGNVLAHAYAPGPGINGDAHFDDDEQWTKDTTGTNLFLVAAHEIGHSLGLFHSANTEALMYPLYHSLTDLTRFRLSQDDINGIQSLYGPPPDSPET

Regarding `CC1(C)SCCN(S(=O)(=O)c2ccc3c(c2)Cc2ccccc2-3)[C@H]1C(=O)NO` [Example 6, (S)-4-(9H-Fluorene-2-sulfonyl)-2,2-dimethyl-thiomorpholine-3-carboxylic Acid Hydroxyamide], the negative logarithm of the IC50 (pIC50) was 6.06 in assay [1]; 7.20 in assay [2]; 8.40 in assay [3]; 6.85 in assay [4]; 7.62 in assay [5]; 8.10 in assay [6]. The compound also gave a pIC50 in assay [7] of 6.26.

As to `CC1(C)SCCN(S(=O)(=O)c2ccc3oc4cc([N+](=O)[O-])ccc4c3c2)[C@H]1C(=O)NO` [Example 14, (S)-2,2-Dimethyl-4-(7-nitro-dibenzofuran-2-sulfonyl)-thiomorpholine-3-carboxylic Acid Hydroxyamide], the negative logarithm of the IC50 (pIC50) in assay [1] was 7.42; in assay [2], 7.62; in assay [3], 8.70; in assay [4] it was 7.92; in assay [5], 7.66; in assay [6], 8.30. In assay [7], this compound showed a pIC50 of 6.72.

Turning to `CC1(C)SCN(S(=O)(=O)c2ccc3c(c2)oc2ccccc23)[C@@H]1C(=O)O` [Example 3, R-3-(Dibenzofuran-3-sulfonyl)-5,5-dimethyl-thiazolidine-4-carboxylic Acid], the negative logarithm of the IC50 (pIC50) is 4.00 in assay [1]; 5.00 in assay [2]; 4.64 in assay [3]; 4.00 in assay [4]; 5.02 in assay [5]; 5.60 in assay [6]. In assay [7], this compound had a negative logarithm of the IC50 (pIC50) of 3.82.

What is called pIC50 is −log10 of the IC50, conventionally taken in molar units. A higher pIC50 goes with a low IC50.
